Key:
AMBEL (Ragweed, Common) = experiment: Preemergence herbicidal evaluation; assay type: in vivo, Ambrosia artemisifolia; conditions: rated 4-5 weeks after treatment, rating scale 0-9
In short: (§1)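 Scores use a 0–9 visual scale covering stand, vigor, malformation, size and chlorosis relative to controls, rated four to five weeks after treatment. Before emergence, soil-planted seeds were sprayed with compound in aqueous acetone at roughly 0.0156–0.500 kg/ha and held in the greenhouse.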

ABUTH (Velvetleaf) = experiment: Preemergence herbicidal evaluation; assay type: in vivo, Abutilon theophrasti; conditions: rated 4-5 weeks after treatment, rating scale 0-9
Source text: Results of herbicide evaluation are expressed on a rating scale (0-9). The scale is based upon a visual observation of plant stand, vigor, malformation, size, chlorosis and overall plant appearance as compared with a control.
The preemergence herbicidal activity of the test compounds of the present invention is exemplified by the following tests in which the seeds of a variety of monocotyledonous and dicotyledonous plants are separately mixed with potting soil and planted on top of approximately one inch of soil in separate pint cups. After planting, the cups are sprayed with the selected aqueous acetone solution containing test compound in sufficient quantity to provide the equivalent of about 0.0156 to 0.500 kg per hectare of test compound per cup. The treated cups are then placed on greenhouse benches, watered and cared for in accordance with conventional greenhouse procedures. From four to five weeks after treatment, the tests are terminated and each cup is examined and rated according to the rating system provided in Example 37.
The compounds evaluated are reported by compound number given in Example 37.

ZEAMX (Corn, Field) = experiment: Postemergence herbicidal evaluation; assay type: in vivo, Zea mays; conditions: postemergence
In short: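 Scores (0–9) reflect plant stand, vigor, malformation, size, chlorosis and general appearance relative to control, read 4 to 5 weeks after treatment and averaged where tests were repeated. Application: about 0.0156–0.500 kg/ha sprayed at 40 psi onto two-week seedlings.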

[1] = system: GLXMAW (Soybean, Williams); experiment: Preemergence herbicidal evaluation; assay type: in vivo, Glycine max, (L.) Merr. cv Williams; conditions: rated 4-5 weeks after treatment, rating scale 0-9
In short: as §1

Cn1c(C(F)(F)F)cc(=O)n(-c2cc(N=C3SCC(=O)N3Cc3cccnc3)c(Cl)cc2F)c1=O [Compound 132, 3-{4-Chloro-2-fluoro-5-{[4-oxo-3-(3-pyridylmethyl)-2-thiazolidinylidene]amino}phenyl}-1-methyl-6-(trifluoromethyl)-2,4 (1H,3H)-pyrimidinedione]
Preemergence herbicidal rating AMBEL (AMBEL (Ragweed, Common); rate 0.0625 kg/ha): 0.0
Preemergence herbicidal rating AMBEL (AMBEL (Ragweed, Common); rate 0.1250 kg/ha): 4.0
Preemergence herbicidal rating AMBEL (AMBEL (Ragweed, Common); rate 0.2500 kg/ha): 7.0
Preemergence herbicidal rating ABUTH (ABUTH (Velvetleaf); rate 0.0625 kg/ha): 9.0
Preemergence herbicidal rating ABUTH (ABUTH (Velvetleaf); rate 0.1250 kg/ha): 9.0
Preemergence herbicidal rating ABUTH (ABUTH (Velvetleaf); rate 0.2500 kg/ha): 9.0
Herbicidal rating ZEAMX (ZEAMX (Corn, Field); rate 0.0156 kg/ha): 3.5
Herbicidal rating ZEAMX (ZEAMX (Corn, Field); rate 0.0313 kg/ha): 4.0
Herbicidal rating ZEAMX (ZEAMX (Corn, Field); rate 0.0625 kg/ha): 4.5
Preemergence herbicidal rating GLXMAW ([1]; rate 0.0625 kg/ha): 0.0
Preemergence herbicidal rating GLXMAW ([1]; rate 0.1250 kg/ha): 0.0
Preemergence herbicidal rating GLXMAW ([1]; rate 0.2500 kg/ha): 2.0

Cn1c(C(F)(F)F)cc(=O)n(-c2cc(N=C3SCC(=O)N3Cc3ccncc3)c(Cl)cc2F)c1=O [Compound 133, 3-{4-Chloro-2-fluoro-5-{[4-oxo-3-(4-pyridylmethyl)-2-thiazolidinylidene]amino}phenyl}-1-methyl-6-(trifluoromethyl)-2,4(1H,3H)-pyrimidinedione]
Preemergence herbicidal rating AMBEL (AMBEL (Ragweed, Common); rate 0.0313 kg/ha): 0.0
Preemergence herbicidal rating AMBEL (AMBEL (Ragweed, Common); rate 0.0625 kg/ha): 0.0
Preemergence herbicidal rating AMBEL (AMBEL (Ragweed, Common); rate 0.1250 kg/ha): 0.0
Preemergence herbicidal rating AMBEL (AMBEL (Ragweed, Common); rate 0.2500 kg/ha): 1.0
Preemergence herbicidal rating ABUTH (ABUTH (Velvetleaf); rate 0.0313 kg/ha): 0.0
Preemergence herbicidal rating ABUTH (ABUTH (Velvetleaf); rate 0.0625 kg/ha): 0.0
Preemergence herbicidal rating ABUTH (ABUTH (Velvetleaf); rate 0.1250 kg/ha): 1.0
Preemergence herbicidal rating ABUTH (ABUTH (Velvetleaf); rate 0.2500 kg/ha): 5.0
Herbicidal rating ZEAMX (ZEAMX (Corn, Field); rate 0.0156 kg/ha): 4.0
Herbicidal rating ZEAMX (ZEAMX (Corn, Field); rate 0.0313 kg/ha): 4.0
Herbicidal rating ZEAMX (ZEAMX (Corn, Field); rate 0.0625 kg/ha): 4.0
Preemergence herbicidal rating GLXMAW ([1]; rate 0.0313 kg/ha): 0.0
Preemergence herbicidal rating GLXMAW ([1]; rate 0.0625 kg/ha): 0.0
Preemergence herbicidal rating GLXMAW ([1]; rate 0.1250 kg/ha): 0.0
Preemergence herbicidal rating GLXMAW ([1]; rate 0.2500 kg/ha): 0.0

Cn1c(C(F)(F)F)cc(=O)n(-c2cc(N=C3SCC(=O)N3Cc3cccc(Cl)c3)c(Cl)cc2F)c1=O [Compound 136, 3-{4-Chloro-5-{[3-(m-chlorobenzyl)-4-oxo-2-thiazolidinylidene]amino}-2-fluorophenyl}-1-methyl-6-(trifluoromethyl)-2,4(1H,3H)-pyrimidinedione]
Preemergence herbicidal rating AMBEL (AMBEL (Ragweed, Common); rate 0.0156 kg/ha): 0.0
Preemergence herbicidal rating AMBEL (AMBEL (Ragweed, Common); rate 0.0313 kg/ha): 0.0
Preemergence herbicidal rating AMBEL (AMBEL (Ragweed, Common); rate 0.0625 kg/ha): 1.0
Preemergence herbicidal rating AMBEL (AMBEL (Ragweed, Common); rate 0.1250 kg/ha): 2.0
Preemergence herbicidal rating AMBEL (AMBEL (Ragweed, Common); rate 0.2500 kg/ha): 5.0
Preemergence herbicidal rating ABUTH (ABUTH (Velvetleaf); rate 0.0156 kg/ha): 4.0
Preemergence herbicidal rating ABUTH (ABUTH (Velvetleaf); rate 0.0313 kg/ha): 9.0
Preemergence herbicidal rating ABUTH (ABUTH (Velvetleaf); rate 0.0625 kg/ha): 9.0
Preemergence herbicidal rating ABUTH (ABUTH (Velvetleaf); rate 0.1250 kg/ha): 9.0
Preemergence herbicidal rating ABUTH (ABUTH (Velvetleaf); rate 0.2500 kg/ha): 9.0
Herbicidal rating ZEAMX (ZEAMX (Corn, Field); rate 0.0156 kg/ha): 4.0
Herbicidal rating ZEAMX (ZEAMX (Corn, Field); rate 0.0313 kg/ha): 4.0
Herbicidal rating ZEAMX (ZEAMX (Corn, Field); rate 0.0625 kg/ha): 4.0
Preemergence herbicidal rating GLXMAW ([1]; rate 0.0156 kg/ha): 0.0
Preemergence herbicidal rating GLXMAW ([1]; rate 0.0313 kg/ha): 0.0
Preemergence herbicidal rating GLXMAW ([1]; rate 0.0625 kg/ha): 0.0
Preemergence herbicidal rating GLXMAW ([1]; rate 0.1250 kg/ha): 1.0
Preemergence herbicidal rating GLXMAW ([1]; rate 0.2500 kg/ha): 2.0

COc1cc(CN2C(=O)CSC2=Nc2cc(-n3c(=O)cc(C(F)(F)F)n(C)c3=O)c(F)cc2Cl)cc(OC)c1OC [Compound 140, 3-{4-Chloro-2-fluoro-5-{[3-(3,4,5-trimethoxybenzyl)-4-oxo-2-thiazolidinylidene]amino}phenyl}-1-methyl-6-(trifluoromethyl)-2,4(1H,3H)-pyrimidinedione]
Preemergence herbicidal rating AMBEL (AMBEL (Ragweed, Common); rate 0.0625 kg/ha): 0.0
Preemergence herbicidal rating AMBEL (AMBEL (Ragweed, Common); rate 0.1250 kg/ha): 0.0
Preemergence herbicidal rating AMBEL (AMBEL (Ragweed, Common); rate 0.2500 kg/ha): 0.0
Preemergence herbicidal rating ABUTH (ABUTH (Velvetleaf); rate 0.0625 kg/ha): 0.0
Preemergence herbicidal rating ABUTH (ABUTH (Velvetleaf); rate 0.1250 kg/ha): 3.0
Preemergence herbicidal rating ABUTH (ABUTH (Velvetleaf); rate 0.2500 kg/ha): 7.0
Herbicidal rating ZEAMX (ZEAMX (Corn, Field); rate 0.0156 kg/ha): 3.5
Herbicidal rating ZEAMX (ZEAMX (Corn, Field); rate 0.0313 kg/ha): 4.0
Herbicidal rating ZEAMX (ZEAMX (Corn, Field); rate 0.0625 kg/ha): 4.0
Preemergence herbicidal rating GLXMAW ([1]; rate 0.0625 kg/ha): 0.0
Preemergence herbicidal rating GLXMAW ([1]; rate 0.1250 kg/ha): 0.0
Preemergence herbicidal rating GLXMAW ([1]; rate 0.2500 kg/ha): 0.0
